Reference: US20260250273A1, “CRYSTAL FORM OF COMPOUND, AND PHARMACEUTICAL COMPOSITION AND USE THEREOF” (SHENZHEN KEYE LIFE TECHNOLOGIES CO., LTD, priority 2023, published 2026)

What was measured:
[1] = Suspension competition experiment between anhydrous crystal form A and anhydrous crystal form C (XRPD); format: physicochemical; conditions: for Relative stability of crystal forms concluded from suspension competition: room temperature to 50 °C
[2] = Solid-form stability under long-term and accelerated conditions (HPLC purity, XRPD); format: physicochemical; conditions: 10 d; for Physical and chemical stability: 25 °C/60% RH and 40 °C/75% RH; for Purity (Area %): HPLC, initial purity 99.55 (form A), 99.84 (form C)
[3] = Heating experiment and variable temperature XRPD (VT-XRPD); format: physicochemical; conditions: heated to 120 °C
[4] = High-temperature stability (HPLC purity, XRPD); format: physicochemical; conditions: 60 °C, 10 d; for Purity (Area %): HPLC, initial purity 99.55 (form A), 99.84 (form C)
[5] = Hygroscopicity evaluation (DVS test, XRPD after DVS); format: physicochemical; conditions: for Sample weight change at 80% RH (%): DVS, 25 °C; for Whether crystal form changes before and after test: XRPD before and after DVS test; for Hygroscopicity: weight gain when humidity rises to 80% RH at 25 °C, Chinese Pharmacopoeia (2020 Edition)
[6] = Crystal form conversion of wet samples on air-drying at room temperature (XRPD); format: physicochemical; conditions: for Crystal form after air-drying: air-dried at room temperature for 1 d; for Stability of the crystal form: crystalline wet solid
DHX33 = molecular target: T1, DHX33 (Homo sapiens, UniProt Q9H6R0); conditions: background statement, no data; cited from earlier work
T1 sequence (Q9H6R0 1-707): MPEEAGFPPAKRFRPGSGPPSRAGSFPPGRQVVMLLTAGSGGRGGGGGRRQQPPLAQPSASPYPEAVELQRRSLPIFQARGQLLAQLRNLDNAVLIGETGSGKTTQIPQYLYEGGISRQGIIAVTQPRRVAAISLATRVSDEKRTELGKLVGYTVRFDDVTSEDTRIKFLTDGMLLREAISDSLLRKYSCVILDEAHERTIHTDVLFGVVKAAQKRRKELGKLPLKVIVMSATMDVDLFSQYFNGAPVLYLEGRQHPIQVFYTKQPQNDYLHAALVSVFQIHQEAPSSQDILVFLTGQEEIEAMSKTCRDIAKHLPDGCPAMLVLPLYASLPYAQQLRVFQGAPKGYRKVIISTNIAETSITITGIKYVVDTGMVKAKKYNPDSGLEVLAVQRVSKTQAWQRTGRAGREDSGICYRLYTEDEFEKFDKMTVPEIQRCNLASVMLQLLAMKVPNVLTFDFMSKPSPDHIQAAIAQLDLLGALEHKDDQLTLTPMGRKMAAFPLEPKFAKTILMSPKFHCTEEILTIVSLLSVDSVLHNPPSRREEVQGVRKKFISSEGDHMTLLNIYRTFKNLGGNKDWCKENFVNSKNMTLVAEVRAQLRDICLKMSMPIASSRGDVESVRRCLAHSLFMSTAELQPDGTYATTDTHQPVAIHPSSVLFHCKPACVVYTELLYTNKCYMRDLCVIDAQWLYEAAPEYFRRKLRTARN

[7] = listed as anhydrous crystal form A
[8] = listed as anhydrous crystal form C

COc1ccc2nc(NC(=O)c3cc(C)n(-c4sc(C)cc4C#N)c3C)[nH]c2c1
Competition for 1 d (XPRD) ([1]; EtOH, 50 °C, saturated solution of Compound (1), resulting crystal form): crystal form B | Competition for 2 d (XPRD) ([1]; IPAc, RT, saturated solution of Compound (1), resulting crystal form): crystal form B

COc1ccc2nc(NC(=O)c3cc(C)n(-c4sc(C)cc4C#N)c3C)[nH]c2c1 (single isomer, unassigned) [Anhydrous crystal form A, 1-(3-cyano-5-methylthiophen-2-yl)-N-(6-methoxy-1H-benzo[d]imidazol-2-yl)-2,5-dimethyl-1H-pyrrole-3-carboxamide]
Physical and chemical stability [2]: good physical and chemical stability | Crystal form Change ([2]; 25 °C/60% RH): No | Purity (Area %) ([2]; 25 °C/60% RH): 99.67 Area % | Crystal form Change ([2]; 40 °C/75% RH): No | Purity (Area %) ([2]; 40 °C/75% RH): 99.60 Area % | Crystal form in VT-XRPD analysis ([3]; XRPD in situ, then cooled to room temperature): crystal form remained unchanged | Crystal form in heating experiment ([3]; maintained for 5 min, cooled to room temperature): crystal form remained unchanged | Relative stability of crystal forms concluded from suspension competition [1]: more thermodynamically stable anhydrous form | Crystal form Change [4]: No | Physical and chemical stability [4]: good physical and chemical stability | Purity (Area %) [4]: 99.63 Area % | Sample weight change at 80% RH (%) [5]: 3.24% | Sample weight change at 80% RH (%) [5, 7]: 3.24% | Whether crystal form changes before and after test [5]: No | Whether crystal form changes before and after test [5, 7]: no changes in crystal form | Hygroscopicity [5]: slight hygroscopicity

COc1ccc2nc(NC(=O)c3cc(C)n(-c4sc(C)cc4C#N)c3C)[nH]c2c1 (single isomer, unassigned) [Anhydrous crystal form C, 1-(3-cyano-5-methylthiophen-2-yl)-N-(6-methoxy-1H-benzo[d]imidazol-2-yl)-2,5-dimethyl-1H-pyrrole-3-carboxamide]
Physical and chemical stability [2]: good physical and chemical stability | Crystal form Change ([2]; 25 °C/60% RH): No | Purity (Area %) ([2]; 25 °C/60% RH): 99.87 Area % | Crystal form Change ([2]; 40 °C/75% RH): No | Purity (Area %) ([2]; 40 °C/75% RH): 99.90 Area % | Crystal form Change [4]: No | Physical and chemical stability [4]: good physical and chemical stability | Purity (Area %) [4]: 99.86 Area % | Sample weight change at 80% RH (%) [5]: 3.71% | Sample weight change at 80% RH (%) [5, 8]: 3.71% | Whether crystal form changes before and after test [5]: No | Whether crystal form changes before and after test [5, 8]: no changes in crystal form | Hygroscopicity [5]: slight hygroscopicity | Crystal form after air-drying [6]: converted into the anhydrous crystal form A

COc1ccc2nc(NC(=O)c3cc(C)n(-c4sc(C)cc4C#N)c3C)[nH]c2c1 [compound of Formula (1), 1-(3-cyano-5-methylthiophen-2-yl)-N-(6-methoxy-1H-benzo[d]imidazol-2-yl)-2,5-dimethyl-1H-pyrrole-3-carboxamide]
Inhibiting the RNA helicase activity of DHX33 (DHX33): capable of inhibiting the RNA helicase activity of DHX33

COc1ccc2nc(NC(=O)c3cc(C)n(-c4sc(C)cc4C#N)c3C)[nH]c2c1 [crystal form B, 1-(3-cyano-5-methylthiophen-2-yl)-N-(6-methoxy-1H-benzo[d]imidazol-2-yl)-2,5-dimethyl-1H-pyrrole-3-carboxamide]
Relative stability of crystal forms concluded from suspension competition [1]: relatively more stable in the case of the wet sample | Crystal form after air-drying [6]: converted into the anhydrous crystal form A | Stability of the crystal form [6]: metastable form

COc1ccc2nc(NC(=O)c3cc(C)n(-c4sc(C)cc4C#N)c3C)[nH]c2c1 [crystal form D, 1-(3-cyano-5-methylthiophen-2-yl)-N-(6-methoxy-1H-benzo[d]imidazol-2-yl)-2,5-dimethyl-1H-pyrrole-3-carboxamide]
Crystal form after air-drying [6]: converted into the anhydrous crystal form C | Stability of the crystal form [6]: metastable form
